Consider two compounds from publication PMC6321646, “Evaluation of the Novel Synthetic Tyrosinase Inhibitor (Z)-3-(3-bromo-4-hydroxybenzylidene)thiochroman-4-one (MHY1498) In Vitro and In Silico” (Molecules, 2018).

Structures are written as SMILES.

The target of the assay is T1, mushroom tyrosinase (Agaricus bisporus, UniProt C7FF04).
T1 construct: gene PPO3
In words: dopachrome formation at […] nm, % inhibition at […]. The class given is biochemical. As to conditions: read-out: 50μM / Mean ± SD (%).

T1 sequence (C7FF04 2-392): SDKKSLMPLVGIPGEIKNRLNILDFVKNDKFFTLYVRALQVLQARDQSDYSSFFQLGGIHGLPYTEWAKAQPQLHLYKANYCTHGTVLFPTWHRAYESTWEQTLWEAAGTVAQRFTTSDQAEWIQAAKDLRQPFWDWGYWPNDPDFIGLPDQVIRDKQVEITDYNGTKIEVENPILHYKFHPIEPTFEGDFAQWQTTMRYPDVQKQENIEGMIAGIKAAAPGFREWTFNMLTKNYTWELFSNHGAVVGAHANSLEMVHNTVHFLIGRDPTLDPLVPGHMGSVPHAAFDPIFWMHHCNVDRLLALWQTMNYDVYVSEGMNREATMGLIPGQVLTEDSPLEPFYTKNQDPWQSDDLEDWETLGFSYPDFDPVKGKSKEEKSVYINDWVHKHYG

In the case of `COc1ccc(/C=C2\CSc3ccccc3C2=O)cc1O` [d], the inhibition at 50 µM is 91.5 ± 6.2%. The figure for `O=C1/C(=C/c2ccc(O)cc2)CSc2ccccc21` [a] is 81.6 ± 1%.
